Literature values as cited in patent US9018178B2, “Method for the treatment of food, feed and agricultural products with a polyene antifungal compound” (DSM IP Assets B.V., priority 2007, dated 2015).

Test system: common food spoilage yeasts and moulds
Conditions: most strains of common food spoilage yeasts and moulds

In the case of `C[C@@H]1C/C=C/C=C/C=C/C=C/[C@H](O[C@@H]2O[C@H](C)[C@@H](O)[C@H](N)[C@@H]2O)C[C@@H]2O[C@](O)(C[C@@H](O)C[C@H]3O[C@@H]3/C=C/C(=O)O1)C[C@H](O)[C@H]2C(=O)O` [natamycin], the “Concentrations inhibiting most strains” value is listed as 1-15 ppm.
